Results published in PubChem BioAssay (NCI).
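Assay format: 96-well plates, 48-hour exposure. TGI: concentration producing complete growth inhibition.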

What was measured:
Assay in all cases: NCI anticancer screen, dose series, 48 h
786-0 renal = test system: 786-0 renal
A498 renal = test system: A498 renal
A549 NSCLC = test system: A549 NSCLC
CAKI-1 renal = test system: CAKI-1 renal
CCRF-CEM leukemia = test system: CCRF-CEM leukemia
COLO 205 colon = test system: COLO 205 colon
DLD-1 colon = test system: DLD-1 colon
DMS 114 small cell lung = test system: DMS 114 small cell lung
DMS 273 small cell lung = test system: DMS 273 small cell lung
EKVX NSCLC = test system: EKVX NSCLC
HCT-116 colon = test system: HCT-116 colon
HCT-15 colon = test system: HCT-15 colon
HL-60(TB) leukemia = test system: HL-60(TB) leukemia
HOP-18 NSCLC = test system: HOP-18 NSCLC
HOP-62 NSCLC = test system: HOP-62 NSCLC
HOP-92 NSCLC = test system: HOP-92 NSCLC
HT29 colon = test system: HT29 colon
IGROV1 ovarian = test system: IGROV1 ovarian
K-562 leukemia = test system: K-562 leukemia
KM12 colon = test system: KM12 colon
KM20L2 colon = test system: KM20L2 colon
LOX IMVI melanoma = test system: LOX IMVI melanoma
LXFL 529 NSCLC = test system: LXFL 529 NSCLC
M14 melanoma = test system: M14 melanoma
M19-MEL melanoma = test system: M19-MEL melanoma
MALME-3M melanoma = test system: MALME-3M melanoma
MOLT-4 leukemia = test system: MOLT-4 leukemia
NCI-H226 lung = test system: NCI-H226 lung
NCI-H23 lung = test system: NCI-H23 lung
NCI-H460 lung = test system: NCI-H460 lung
NCI-H522 lung = test system: NCI-H522 lung
OVCAR-3 ovarian = test system: OVCAR-3 ovarian
OVCAR-4 ovarian = test system: OVCAR-4 ovarian
OVCAR-5 ovarian = test system: OVCAR-5 ovarian
OVCAR-8 ovarian = test system: OVCAR-8 ovarian
RPMI-8226 leukemia = test system: RPMI-8226 leukemia
RXF 393 renal = test system: RXF 393 renal
SF-268 CNS = test system: SF-268 CNS
SF-295 CNS = test system: SF-295 CNS
SF-539 CNS = test system: SF-539 CNS
SK-MEL-2 melanoma = test system: SK-MEL-2 melanoma
SK-MEL-5 melanoma = test system: SK-MEL-5 melanoma
SK-OV-3 ovarian = test system: SK-OV-3 ovarian
SN12C renal = test system: SN12C renal
SNB-19 CNS = test system: SNB-19 CNS
SNB-75 CNS = test system: SNB-75 CNS
SNB-78 CNS = test system: SNB-78 CNS
SW-620 colon = test system: SW-620 colon
TK-10 renal = test system: TK-10 renal
U251 CNS = test system: U251 CNS
UACC-257 melanoma = test system: UACC-257 melanoma
UACC-62 melanoma = test system: UACC-62 melanoma
UO-31 renal = test system: UO-31 renal
XF 498 CNS = test system: XF 498 CNS
ACHN renal = test system: ACHN renal
SK-MEL-28 melanoma = test system: SK-MEL-28 melanoma
HCC-2998 colon = test system: HCC-2998 colon

Structure (SMILES): N#Cc1cccc(N2C(=O)c3ccc(C(=O)c4ccc5c(c4)C(=O)N(c4cccc(C#N)c4)C5=O)cc3C2=O)c1
- TGI (786-0 renal): > 100 µM
- TGI (A498 renal): > 100 µM
- TGI (A549 NSCLC): > 100 µM
- TGI (CAKI-1 renal): > 100 µM
- TGI (CCRF-CEM leukemia): > 100 µM
- TGI (COLO 205 colon): > 100 µM
- TGI (DLD-1 colon): > 100 µM
- TGI (DMS 114 small cell lung): > 100 µM
- TGI (DMS 273 small cell lung): > 100 µM
- TGI (EKVX NSCLC): > 100 µM
- TGI (HCT-116 colon): > 100 µM
- TGI (HCT-15 colon): > 100 µM
- TGI (HL-60(TB) leukemia): > 100 µM
- TGI (HOP-18 NSCLC): > 100 µM
- TGI (HOP-62 NSCLC): > 100 µM
- TGI (HOP-92 NSCLC): > 100 µM
- TGI (HT29 colon): > 100 µM
- TGI (IGROV1 ovarian): > 100 µM
- TGI (K-562 leukemia): > 100 µM
- TGI (KM12 colon): > 100 µM
- TGI (KM20L2 colon): > 100 µM
- TGI (LOX IMVI melanoma): > 100 µM
- TGI (LXFL 529 NSCLC): > 100 µM
- TGI (M14 melanoma): > 100 µM
- TGI (M19-MEL melanoma): > 100 µM
- TGI (MALME-3M melanoma): > 100 µM
- TGI (MOLT-4 leukemia): > 100 µM
- TGI (NCI-H226 lung): > 100 µM
- TGI (NCI-H23 lung): > 100 µM
- TGI (NCI-H460 lung): > 100 µM
- TGI (NCI-H522 lung): > 100 µM
- TGI (OVCAR-3 ovarian): > 100 µM
- TGI (OVCAR-4 ovarian): > 100 µM
- TGI (OVCAR-5 ovarian): > 100 µM
- TGI (OVCAR-8 ovarian): > 100 µM
- TGI (RPMI-8226 leukemia): > 100 µM
- TGI (RXF 393 renal): > 100 µM
- TGI (SF-268 CNS): > 100 µM
- TGI (SF-295 CNS): > 100 µM
- TGI (SF-539 CNS): > 100 µM
- TGI (SK-MEL-2 melanoma): > 100 µM
- TGI (SK-MEL-5 melanoma): > 100 µM
- TGI (SK-OV-3 ovarian): > 100 µM
- TGI (SN12C renal): > 100 µM
- TGI (SNB-19 CNS): > 100 µM
- TGI (SNB-75 CNS): > 100 µM
- TGI (SNB-78 CNS): > 100 µM
- TGI (SW-620 colon): > 100 µM
- TGI (TK-10 renal): > 100 µM
- TGI (U251 CNS): > 100 µM
- TGI (UACC-257 melanoma): > 100 µM
- TGI (UACC-62 melanoma): > 100 µM
- TGI (UO-31 renal): > 100 µM
- TGI (XF 498 CNS): > 100 µM

Structure (SMILES): COc1ccc(/C(Cl)=C(\C=O)c2ccc(Cl)c(Cl)c2)cc1
- TGI (A498 renal): 35.6 µM
- TGI (ACHN renal): 20 µM
- TGI (CAKI-1 renal): 23 µM
- TGI (CCRF-CEM leukemia): 30.2 µM
- TGI (COLO 205 colon): 36.6 µM
- TGI (DLD-1 colon): 25.5 µM
- TGI (DMS 114 small cell lung): 18 µM
- TGI (DMS 273 small cell lung): 32.8 µM
- TGI (EKVX NSCLC): 37.9 µM
- TGI (HCT-116 colon): 14.1 µM
- TGI (HCT-15 colon): 20.4 µM
- TGI (HL-60(TB) leukemia): 23.9 µM
- TGI (HOP-18 NSCLC): 28.3 µM
- TGI (HOP-62 NSCLC): 27.2 µM
- TGI (HOP-92 NSCLC): 24.3 µM
- TGI (HT29 colon): 15.5 µM
- TGI (IGROV1 ovarian): 33.7 µM
- TGI (K-562 leukemia): > 100 µM
- TGI (KM20L2 colon): 24 µM
- TGI (LOX IMVI melanoma): 13.9 µM
- TGI (LXFL 529 NSCLC): 20.4 µM
- TGI (M14 melanoma): 38 µM
- TGI (M19-MEL melanoma): 28.2 µM
- TGI (MALME-3M melanoma): 34.1 µM
- TGI (MOLT-4 leukemia): 7.36 µM
- TGI (NCI-H226 lung): 36.4 µM
- TGI (NCI-H460 lung): 19 µM
- TGI (NCI-H522 lung): 7.76 µM
- TGI (OVCAR-3 ovarian): 31.9 µM
- TGI (OVCAR-8 ovarian): 32.3 µM
- TGI (RPMI-8226 leukemia): 8.05 µM
- TGI (SF-268 CNS): 24.9 µM
- TGI (SF-295 CNS): 22 µM
- TGI (SF-539 CNS): 22.2 µM
- TGI (SK-MEL-2 melanoma): 15.5 µM
- TGI (SK-MEL-28 melanoma): 31 µM
- TGI (SK-MEL-5 melanoma): 25.8 µM
- TGI (SK-OV-3 ovarian): 55 µM
- TGI (SN12C renal): 29.2 µM
- TGI (SNB-19 CNS): 30.1 µM
- TGI (SNB-75 CNS): 7.87 µM
- TGI (SNB-78 CNS): 49 µM
- TGI (SW-620 colon): 19.3 µM
- TGI (TK-10 renal): 32.5 µM
- TGI (U251 CNS): 18.4 µM
- TGI (UACC-62 melanoma): 26.7 µM
- TGI (UO-31 renal): 26.8 µM
- TGI (XF 498 CNS): 24.3 µM

Structure (SMILES): Cc1cn(C2CC(n3cncn3)C(C(C)O)O2)c(=O)[nH]c1=O (stereo unspecified)
- TGI (786-0 renal): > 100 µM
- TGI (A549 NSCLC): > 100 µM
- TGI (ACHN renal): > 100 µM
- TGI (CCRF-CEM leukemia): > 100 µM
- TGI (COLO 205 colon): > 100 µM
- TGI (DLD-1 colon): > 100 µM
- TGI (DMS 114 small cell lung): > 100 µM
- TGI (DMS 273 small cell lung): > 100 µM
- TGI (EKVX NSCLC): > 100 µM
- TGI (HCC-2998 colon): > 100 µM
- TGI (HCT-116 colon): > 100 µM
- TGI (HCT-15 colon): > 100 µM
- TGI (HL-60(TB) leukemia): > 100 µM
- TGI (HOP-18 NSCLC): > 100 µM
- TGI (HOP-92 NSCLC): > 100 µM
- TGI (HT29 colon): > 100 µM
- TGI (IGROV1 ovarian): > 100 µM
- TGI (K-562 leukemia): > 100 µM
- TGI (KM12 colon): > 100 µM
- TGI (KM20L2 colon): > 100 µM
- TGI (LOX IMVI melanoma): > 100 µM
- TGI (LXFL 529 NSCLC): > 100 µM
- TGI (M14 melanoma): > 100 µM
- TGI (M19-MEL melanoma): > 100 µM
- TGI (MALME-3M melanoma): > 100 µM
- TGI (MOLT-4 leukemia): > 100 µM
- TGI (NCI-H226 lung): > 100 µM
- TGI (NCI-H23 lung): > 100 µM
- TGI (NCI-H460 lung): > 100 µM
- TGI (NCI-H522 lung): > 100 µM
- TGI (OVCAR-3 ovarian): > 100 µM
- TGI (OVCAR-4 ovarian): > 100 µM
- TGI (OVCAR-5 ovarian): > 100 µM
- TGI (OVCAR-8 ovarian): > 100 µM
- TGI (RPMI-8226 leukemia): > 100 µM
- TGI (RXF 393 renal): > 100 µM
- TGI (SF-268 CNS): > 100 µM
- TGI (SF-295 CNS): > 100 µM
- TGI (SF-539 CNS): > 100 µM
- TGI (SK-MEL-2 melanoma): > 100 µM
- TGI (SK-MEL-28 melanoma): > 100 µM
- TGI (SK-MEL-5 melanoma): > 100 µM
- TGI (SK-OV-3 ovarian): > 100 µM
- TGI (SN12C renal): > 100 µM
- TGI (SNB-19 CNS): > 100 µM
- TGI (SNB-75 CNS): > 100 µM
- TGI (SNB-78 CNS): > 100 µM
- TGI (SW-620 colon): > 100 µM
- TGI (TK-10 renal): > 100 µM
- TGI (U251 CNS): > 100 µM
- TGI (UACC-257 melanoma): > 100 µM
- TGI (UACC-62 melanoma): > 100 µM
- TGI (UO-31 renal): > 100 µM
- TGI (XF 498 CNS): > 100 µM
